Consider one compound from patent US20230075521A1, “RESVERATROL PHARMACEUTICAL COMPOSITIONS AND METHODS OF USE THEREOF” (priority 2021, published 2023).

The nature of data set [1]: Rat PK study, resveratrol in plasma at 30 min. The format is in vivo. Conditions: male, oral, 50 mg/kg, Sprague-Dawley rats, single dose, 30 min after treatment. The method, then:
For mouse PK studies, male CD-1 mice (Charles River Canada) were used. Animals were food fasted for 4 h prior to dosing and water fasted 1 h prior to dosing. […] At each time point (15 min, 30 min, 1 h, 4 h) 3 mice of each group were terminally bled via cardiac puncture under red light. Blood was collected into sodium-EDTA tubes under red light and spun at […] for 10 min at 6800×g. Plasma was collected and split into amber tubes. Both left and right brain were collected and snap-frozen in liquid nitrogen and stored at […] Drug concentrations were analyzed by liquid chromatography-mass spectrometry (LC-MS/MS) by KDM Laboratories Inc. For rat PK studies, male Sprague-Dawley rats (Charles River Canada) were used. […] Blood was collected under red light from the trunk at 30 min into K3EDTA tubes and centrifuged immediately at 4° C. for 10 min at 6800×g, and plasma collected into amber tubes. Brains were collected and snap-frozen in liquid nitrogen and stored at […] Drug concentration was analyzed by LC-MS/MS.

The subject of data set [2] is 3×Tg-AD mice. Nature of the data set: Behavior battery, long-term prophylactic treatment. Conditions: 50 mg/kg oral, at 6 or 10 months of age. The format is in vivo, mouse. As to the method: For long-term prophylactic studies, a cohort of 30 mice was used (50% males and females). […] JOTROL™ and RSV were prepared under red light and administered using a red syringe and metal gavage to prevent light exposure. Mice were treated 5 days a week for 9 months beginning at 4 months of age (prior to disease development). As detailed below, a battery of behavioral tests was conducted, including Y-maze spontaneous alternation, open field, rotarod, novel object recognition, Barnes maze, and object location memory. A battery of behavior tests designed to test motor coordination skills, anxiety, spatial learning and reference memory was performed on all long-term-treated mice. Motor coordination was evaluated using rotarod. Anxiety was evaluated by open field and elevated 0-maze tests. […] Motor coordination was assessed by the latency to fall on the very first trial between treatment groups. Motor learning was measured both within and between sub-jects by comparing the first trial with subsequent trials and is evident as an increased latency to fall over time. […] Distance, velocity, and time in center versus periphery were recorded and analyzed. Anxiety-related behavior can be determined by the duration spent in the center of the field versus the periphery. […] Total arm entries and percent of spontaneous alternations were recorded. […]

The subject of data set [3] is Human Aβ1-42, Aβ1-40, phosphorylated tau, total tau. Nature of the data set: ELISA of AD pathological hallmarks in brain tissue. Format: in vivo, 3×Tg-AD mouse. Particulars: 50 mg/kg oral, 9 months. As to the method:
At study endpoints (age 15 months for sub-chronic study, age 13 months for long-term study), mice were anaesthetized with isoflurane and blood was collected by transcardial puncture. Blood was stored on ice and then centrifuged at 10,000×g at 4° C. for 10 min to collect serum and stored at −80° C. until use. The brain was then extracted and quickly dissected on ice to collect prefrontal cortex (PFC), hippocampus, entorhinal cortex (ERC), and cerebellum, which were immediately frozen in liquid nitrogen. The samples were stored at −80° C. until processed for RNA or protein extraction. […]
Protein lysates were extracted by sonicating tissue in M-PER Mammalian Protein Extraction Reagent (Thermo Fisher Scientific) supplemented with protease inhibitor (Thermo Fisher Scientific) and phosphatase inhibitor (Thermo Fisher Scientific). Total protein was quantified using Pierce BCA Protein Assay Kit (Thermo Fisher Scientific) and read at 562 nm using EnVision (Perkin Elmer).
Human Aβ1-42, Aβ1-40, phosphorylated tau Ser 396, phosphorylated tau Thr181, and total tau were measured in brain tissue by enzyme linked immuno-sorbent assay (ELISA; Invitrogen by Thermo) and normalized to total protein. All the kits were used as per the manufacturer's instructions and measured using the EnVision® multimode plate reader (Perkin Elmer). […]
(In general: In an ELISA, binding on a coated surface is turned into a signal by an enzyme label.)

In data set [4] the test system is AD-related gene expression. Nature of the data set: RT-qPCR of brain regions, long-term treatment. Format: in vivo, 3×Tg-AD mouse. Conditions: 3×Tg-AD mice, 50 mg/kg, 9 months. The method, then:
At study endpoints (age 15 months for sub-chronic study, age 13 months for long-term study), mice were anaesthetized with isoflurane and blood was collected by transcardial puncture. Blood was stored on ice and then centrifuged at 10,000×g at 4° C. for 10 min to collect serum and stored at −80° C. until use. The brain was then extracted and quickly dissected on ice to collect prefrontal cortex (PFC), hippocampus, entorhinal cortex (ERC), and cerebellum, which were immediately frozen in liquid nitrogen. The samples were stored at −80° C. until processed for RNA or protein extraction. For each mouse, brain regions from one hemisphere were used for RNA preparation and qPCR and sections from the other hemisphere were used for protein work including ELISAs.
(In general: Real-time PCR tracks product formation cycle by cycle.)

The conditions of data set [5]: cited from earlier work.

Like-named read-outs stand apart in the source and are kept apart here.

What is called Cmax is the maximum level reached in the sampled fluid or tissue. As for `Oc1ccc(/C=C/c2cc(O)cc(O)c2)cc1` [RSV, (trans-)resveratrol], the concentration at 30 min in data set [1] is 180 ± 33.6 ng/mL. In addition, the “Y-maze spontaneous alternation performance” value in data set [2] was “No significant group differences”. In addition, the “Phospho-tau at Ser396 in PFC, RSV-treated vs vehicle” value in data set [3] (male 3×Tg-AD mice) was “significantly different”. For the same compound, in data set [3] (males and females analyzed together), the “Total tau in hippocampus, decrease vs vehicle” value turned out to be 170.5±44.83. Further, in data set [4], the “Adam10 expression in PFC, increase vs vehicle” value is recorded as 20.44%. Also, the Cmax in data set [5] (1 g encapsulated dose (Turner et al. 2015)) is 85 ng/mL; in data set [5] (2.5 g micronized dose (Howells et al. 2011)), 1942 ng/mL. Besides, the “AUC exposure, estimated” value in data set [5] (3,000 mg/day, healthy volunteers, published data) is recorded as 2100 ng·h/mL.
